Here are results for two compounds from US5741785A, “Heterocyclic compounds, their preparation and use” (Novo Nordisk A/S, priority 1994, dated 1998).

Test [1] relates to quisqualic acid stimulated spreading depression in chicken retina. The test can be described thus: Spreading depression (Test 2), quisqualic acid stimulated, chicken retina. In kind it is cell-based. As to conditions: Gallus gallus, quisqualate 1 μg/ml, 15 min preincubation, 26° C., read-out: IC50 (50% maximal inhibition of quisqualic acid stimulated spreading depression), TEST 2. From the text: The influence of glutamic acid analogues on secondary effects of glutamate receptor interactions may be studied in vitro by using the phenomenon of spreading depression in chicken retina. Such experiments will provide information as to the efficacies (agonist/antagonist) of the test substances. This is in contrast to binding studies, which only provide information on the affinities of the compounds for the receptor.
The pharmacological properties of the compounds of the present invention can be illustrated by determining their capability for displacing radioactively labelled 2-amino-3-hydroxy-5-methyl-4-isoxazolepropionic acid (AMPA) from the AMPA type receptors. […]
The eyes were initially incubated in normal P.S.S. for 15-30 min. and then transferred to P.S.S. containing quisqualate (1 μg/ml). In this "stimulating solution" S.D.s start spontaneously usually from the edge of the retina, and can be easily observed by eye, The time taken for an S.D. to start in each eye was measured.
After a further 15 min. of incubation in normal P.S.S. the eyes were transferred to normal P.S.S, containing the test compound and incubated for 15 min. […] The time taken for an S.D. to start in each eye was measured again. The eyes were then placed back in normal P.S.S. and after 15 min. the time taken for S.D. to start was measured again, in order to assess the degree of recovery from any drug effects. […]

Test [2] addresses AMPA type receptors. The test can be described thus: 3H-AMPA binding (Test 1), rat cerebral cortical membrane homogenate. As to conditions: 5 nM 3H-AMPA, 0° C., 30 min, pH 7.1, Hill analysis; read-out: IC50 (50% displacement of the specific binding of 3H-AMPA), TEST 1. The text has this:
AMPA receptor binding may be studied by using ^3 H-AMPA as radioligand.
The pharmacological properties of the compounds of the present invention can be illustrated by determining their capability for displacing radioactively labelled 2-amino-3-hydroxy-5-methyl-4-isoxazolepropionic acid (AMPA) from the AMPA type receptors.
The displacement activity of the compounds may be shown by determining the IC50 value which represents the concentration (μM) which causes a displacement of 50% of the specific binding of ^3 H-AMPA.
^3 H-AMPA binding (Test 1)
500/μl of thawed rat cerebral cortical membrane homogenate in Tris-HCl (30 mM), CaCl2 (2.5 mM) and KSCN (100 mM) pH 7.1 were incubated at 0° C. for 30 min. with 25 μl ^3 H-AMPA (5 nM final concentration) and the test compound and buffer. Nonspecific binding was determined by incubation with L-glutamic acid (600/μM final concentration). The binding reaction was terminated by adding 5 ml of ice-cold buffer followed by filtration through Whatman GF/C glass fibre filters and 2×5 ml wash with ice-cold buffer. Bound radioactivity was measured by scintillation counting. IC50 was determined by Hill analysis of at least four concentrations of test compound.

Test [3] deals with AMPA receptor. The conditions noted are these: reported in J. Med. Chem., 35, 3319-3324, 1992; cited from earlier work.

A word on the IC50: it is the midpoint of a concentration-inhibition curve. As to `Cc1c(C(=O)O)nc2c(=O)[nH]c3cc(C(F)(F)F)ccc3n12` [Example 2, 2-Carboxy-1-methyl-7-trifluoromethylimidazo[1,2-a]quinoxalin-4(5H)-one], the IC50 in test [1] was 1.1 µM; in test [2], 0.45 µM.
Take `O=c1[nH]c2cc(Cl)c(Cl)cc2n2ccnc12` [7,8-dichloro-imidazo[1,2-a]quinoxaline-4(5H)-one]: in test [3], the “affinity for the AMPA receptor” value was “reasonable affinity”.
